The subject of one series is HIV. The note with it: cited from earlier work; for REDUCTION IN VIRAL LOAD: patients, drug used on its own.
For series [1] the following is noted: human, in vivo; cited from earlier work.
Series [2] relates to HIV-1. In words: Anti-HIV EC50 in cell cultures (benchmark AZT). To be noted: in vitro. From the text:
The antigen Agp120 assay—the virus related antigen—is related to the number of virus particles produced by measuring glycoprotein gp120 in infected cell cultures.
The therapeutic index is selected so as not to damage healthy cells.

A further series relates to cell growth. The note with it: cited from earlier work.
For series [3], the system named is HIV-1. To be noted: cells protected from HIV infection, cell cultures; cited from earlier work.
For series [4] the following is noted: cited from earlier work.
Series [5] has as its target T1, viral envelope protein gp120 interaction with the cellular receptor protein CD4 (Human immunodeficiency virus type 1 group M subtype B, UniProt P04578).
T1 construct: viral envelope protein gp120
Nature of the series: biochemical. Format: binding, HIV. To be noted: for activity in words, compared with AC-1: summary of Table 1, both tests. On the procedure:
(§1) Two tests were performed: Test 1 was performed using infected blood, while Test 2 used cell cultures.
All stocks solutions were made 25 mM in distilled water and tested at same concentrations.
The procedure was carried out as follows: • 1 Plastic plates were coated with cellular receptor protein CD4. • 2 The plates were washed well before adding a predetermined, appropriate quantity of viral envelope protein gp120 for binding to CD4. • 3 To see inhibition by compounds, different concentrations were added a few minutes before adding gp120. • 4 The mixture was incubated at 37° C. for binding. • 5 The plates were then flashed well and bound gp120 was detected by reaction with anti-HIV antibodies, incubated for 12 hours at 4° C. • 6 The amount of antibody bound was detected by adding anti-Human antibodies attached to an enzyme horse raddish peroxidase. • 7 After another incubation and wash, the quantity of the enzyme was measured by adding substrate o-phenyl diamine (OPD). • 8 The colour developed was read at 492 nm. • 9 All incubations took three days for adding different reagents. The percentage of inhibition by compounds, was calculated from the standard curve obtained by using different dilutions of gp120 alone. Test 2

Another series relates to wild-type HIV-1 (111a). Nature of the series: Test 2: syncytium formation in HIV-1 infected CEM cell cultures. Type of series: cell-based. The note with it: CEM cells, 4 days at 37° C., syncytium formation inhibited by 50%; for EC50: Human immunodeficiency virus 1, CCRF-CEM, 96 h. The protocol: as §1
The results shown in Table 1 for test 2 were obtained by testing cell cultures in accordance with the following procedure.
CEM cells were suspended at approximately 250,000 cells per milliliter of culture medium and infected with wild-type HIV-1 (111a) at approximately 100 times the 50% cell culture infective dose (CCID50) per milliliter. Then 100 μl of the infected cell suspensions were added to 200 μl microtiter plate wells containing 100 μl of an appropriate dilution of the test compounds. After 4 days incubation at 37° C. the cell cultures were microscopically examined for syncytium formation.

These results are taken from patent US7338977B2, “Anti-viral compounds” (Aids Care Pharma Limited, priority 2003, dated 2008).

Values after ≈ are worked out from the molar mass of the structure shown.

The CC50 is the concentration that lowers cell viability or growth by half. As usually defined, the EC50 is the concentration that produces a half-maximal response.

In the case of `Nc1nc(NC2CC2)c2ncn([C@H]3C=C[C@@H](CO)C3)c2n1` [Abacavir], in the series with HIV, the “REDUCTION IN VIRAL LOAD” value is 50–90%.

For `O=C1Nc2ccc(Cl)cc2[C@@](C#CC2CC2)(C(F)(F)F)O1` [Efavirenz], the “SIDE EFFECTS” value in series [1] is recorded as “skin reaction”. Moreover, the “REDUCTION IN VIRAL LOAD” value in the series on HIV was 50–90%.

As to `CC(C)CN(C[C@@H](O)[C@H](Cc1ccccc1)NC(=O)O[C@H]1CCOC1)S(=O)(=O)c1ccc(N)cc1` [Amprenavir], the “SIDE EFFECTS” value in series [1] is given as “severe rash”. For the same molecule, in the series with HIV, the “REDUCTION IN VIRAL LOAD” value is given as 99%.

Consider `CC(C)c1nc(CN(C)C(=O)N[C@H](C(=O)N[C@@H](Cc2ccccc2)C[C@H](O)[C@H](Cc2ccccc2)NC(=O)OCc2cncs2)C(C)C)cs1` [Ritonavir], for which, in series [1], the “SIDE EFFECTS” value is on record as “diarrhoea nausea,”. Further, in the series on HIV, the “REDUCTION IN VIRAL LOAD” value is recorded as 99%.

With `Nc1ccn([C@H]2CC[C@@H](CO)O2)c(=O)n1` [Zalcitabine], the “REDUCTION IN VIRAL LOAD” value with HIV is on record as 50–90%.

On to `Cc1ccnc2c1NC(=O)c1cccnc1N2C1CC1` [Nevirapinc], for which the “SIDE EFFECTS” value in series [1] is “skin reaction”. In addition, the “REDUCTION IN VIRAL LOAD” value in the series on HIV is 50–90%.

`Nc1ccn([C@@H]2CS[C@H](CO)O2)c(=O)n1` [Lamivudine]: the “SIDE EFFECTS” value in series [1] is given as “gastrointestinal”.

For `Cc1cn([C@H]2C[C@H](N=[N+]=[N-])[C@@H](CO)O2)c(=O)[nH]c1=O` [Zidovudine], the “Therapeutic index (TC50/EC50 ratio)” value in the series with HIV-1 [2] is recorded as > 62,500. Besides, in the series with cell growth, the CC50 is above 1000 µM. Further, in the series with HIV-1 [3], the concentration for a half-maximal effect (EC50) is around 0.016 µM. The “REDUCTION IN VIRAL LOAD” value with HIV is 50–90%. Further, in the series on HIV (used by itself), the “benefit in treating HIV-infected individuals” value was “no benefits in treating HIV-infected individuals”.

On to `CC(C)Nc1cccnc1N1CCN(C(=O)c2cc3cc(NS(C)(=O)=O)ccc3[nH]2)CC1` [Delaviridine], for which the “SIDE EFFECTS” value in series [1] is listed as “skin reaction”. Further, the “REDUCTION IN VIRAL LOAD” value in the series with HIV is on record as 50–90%.

Consider `Cc1cn([C@H]2C=C[C@@H](CO)O2)c(=O)[nH]c1=O` [Stavudine], for which, in series [1], the “SIDE EFFECTS” value was “peripheral neuropathy”. Moreover, the “REDUCTION IN VIRAL LOAD” value in the series on HIV was 50–90%.

For the molecule dextran sulphate, the “stability after oral intake” value in series [4] (before entry into the plasma) is given as “degrades after oral intake before entry into the plasma”. For the same molecule, in series [4], the oral absorption result is on record as “poorly absorbed orally”.

In the case of `CC(C)(C)NC(=O)[C@@H]1C[C@@H]2CCCC[C@@H]2CN1C[C@@H](O)[C@H](Cc1ccccc1)NC(=O)[C@H](CC(N)=O)NC(=O)c1ccc2ccccc2n1` [Saquinavir], the “SIDE EFFECTS” value in series [1] was “loose stools, nausea,”. Also, in the series on HIV, the “REDUCTION IN VIRAL LOAD” value is on record as 99%.

Regarding `O=C(O)COc1c(O)c2cc(c1O)C(c1ccc(F)cc1)c1cc(c(O)c(OCC(=O)O)c1O)C(c1ccc(F)cc1)c1cc(c(O)c(OCC(=O)O)c1O)C(c1ccc(F)cc1)c1cc(c(O)c(OCC(=O)O)c1O)C2c1ccc(F)cc1` (centres unmarked) [BC130202A], the figures for the 50% effective concentration (EC50) (in series [5]; in the series on wild-type HIV-1 (111a)) were 5 µM and 10 µg/mL (≈ 8.61 µM), respectively. The “% inhibition of gp120/CD4 binding” value in series [5] (Conc 1.56 um) amounted to 19%; in series [5] (Conc 3.125 um) it was 32%; in series [5] (Conc 6.25 um), 46%; in series [5] (Conc 12.5 um), 56%; in series [5] (Conc 25 um), 70%; in series [5] (Conc 50 um) it was 82%. The “% inhibition of gp120/CD4 binding” value in series [5] (Conc 100 um) is on record as 90%. Besides, the “activity in words, compared with AC-1” value in series [5] was “active”.

`O=c1[nH]cnc2c1ncn2[C@H]1CC[C@@H](CO)O1` [Didanosine]: the “SIDE EFFECTS” value in series [1] is “peripheral neuropathy, nausea vomiting, pancreatis”. Also, in the series on HIV, the “REDUCTION IN VIRAL LOAD” value is listed as 50–90%.

Take `O=C(O)COc1cc(OCC(=O)O)c2cc1C(c1ccc(F)cc1)c1cc(c(OCC(=O)O)cc1OCC(=O)O)C(c1ccc(F)cc1)c1cc(c(OCC(=O)O)cc1OCC(=O)O)C(c1ccc(F)cc1)c1cc(c(OCC(=O)O)cc1OCC(=O)O)C2c1ccc(F)cc1` (centres unmarked) [BC070202A]: the results for the EC50 (in series [5]; with wild-type HIV-1 (111a)) were 75 µM and at least 20 µg/mL, respectively. For the same molecule, the “% inhibition of gp120/CD4 binding” value in series [5] (Conc 12.5 um) was 24%; in series [5] (Conc 25 um), 24%; in series [5] (Conc 50 um), 31%; in series [5] (Conc 100 um), 54%. For the same molecule, the “activity in words, compared with AC-1” value in series [5] was “much less active than the compound AC-1”.

For `Cc1c(O)cccc1C(=O)N[C@@H](CSc1ccccc1)[C@H](O)CN1C[C@H]2CCCC[C@H]2C[C@H]1C(=O)NC(C)(C)C` [Nelfinavir], in series [1], the “SIDE EFFECTS” value is “diarrohea, nausea”. Moreover, the “REDUCTION IN VIRAL LOAD” value in the series on HIV is reported as 99%.

For “dodecapotassium acetate of p-bromopyrogallol P—F-phenyl tetramer [AC-1]”, the “% inhibition of gp120/CD4 binding” value in series [5] (Conc 0.39 um) came out at 48%; in series [5] (Conc 0.78 um), 55%; in series [5] (Conc 1.56 um), 62%; in series [5] (Conc 3.125 um), 70%; in series [5] (Conc 6.25 um), 82%; in series [5] (Conc 12.5 um), 86%. Also, the “% inhibition of gp120/CD4 binding” value was found to be 91% in series [5] (Conc 25 um), 93% in series [5] (Conc 50 um) and 96% in series [5] (Conc 100 um). Also, the “Test 2 EC50” value in the series on wild-type HIV-1 (111a) is 4 µg/mL.

Turning to `CC(C)(C)NC(=O)[C@@H]1CN(Cc2cccnc2)CCN1C[C@@H](O)C[C@@H](Cc1ccccc1)C(=O)N[C@H]1c2ccccc2C[C@H]1O` [Indinavir], in the series with HIV, the “REDUCTION IN VIRAL LOAD” value was 99%.
